Test results from patent US20130203659A1 (priority 2006, published 2013).
Where two headings read alike, the source gives them in different places. Positions of bridges follow the written chain, without caps; N, C: chain ends. Residues, ends and D or L forms follow the SMILES beside them. No end group written: not given here. branched PEG 40 kDa = branched polyethylene glycol of 40 kDa

How the values were obtained:
human GLP-1 receptor [1] = target: T1, human GLP-1 receptor (Homo sapiens, UniProt P43220); test: GLP-1R reporter assay (cAMP-regulated luciferase, CHOK1 cells), human receptor; format: cell-based
T1 construct: expressed in transfected cells; host or cells: CHOK1 cells with a cAMP-regulated luciferase reporter construct
T1 sequence (P43220 24-463): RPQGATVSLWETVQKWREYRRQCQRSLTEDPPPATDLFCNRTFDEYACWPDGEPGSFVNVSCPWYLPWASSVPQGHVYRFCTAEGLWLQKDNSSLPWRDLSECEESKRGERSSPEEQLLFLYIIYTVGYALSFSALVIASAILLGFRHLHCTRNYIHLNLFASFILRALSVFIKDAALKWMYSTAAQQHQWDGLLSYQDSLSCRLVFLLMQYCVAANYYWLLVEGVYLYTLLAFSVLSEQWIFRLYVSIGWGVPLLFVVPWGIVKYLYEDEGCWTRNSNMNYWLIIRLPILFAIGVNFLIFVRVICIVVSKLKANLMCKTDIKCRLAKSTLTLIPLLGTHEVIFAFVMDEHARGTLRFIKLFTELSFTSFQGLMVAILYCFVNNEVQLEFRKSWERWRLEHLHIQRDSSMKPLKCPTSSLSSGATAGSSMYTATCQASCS
Procedure: (§1) A. GLP-1R Reporter Assay:
(§2) Increased cAMP levels were measured through enhanced expression of a luciferase reporter gene. […] The evening prior to assay, the cells were washed, the medium replaced with serum-free medium containing 0.5% protease-free bovine serum albumin (BSA), and then cultured overnight. […] Cell lysates were assayed for luciferase activity using the Luciferase Assay System (Promega Corporation, Madison, Wis.). Luciferase activity was measured using a Luminoskan Ascent (Thermo Electron Corporation, Marietta, Ohio). Nonlinear regression analyses of resultant compound concentration curves were performed using GraphPad Prism (GraphPad Software, Inc., San Diego, Calif.).

human GLP-1 receptor [2] = target: T1, human GLP-1 receptor; test: In vitro GLP-1 receptor binding (125I-GLP-1 ligand binding assay), human receptor
Procedure: Cells were sedimented at 1500 rpm for 10 minutes. The resulting pellets were homogenized in 15 mls of ice cold sucrose buffer (25 mM Tris-HCl, 0.32 M Sucrose, 0.25 g/L sodium azide, pH 7.4) with a motorized, glass fitted, Teflon homogenizer. The homogenate was centrifuged at 48,000×g at 4° C. for 10 minutes, resuspended in 25 ml assay buffer (50 mM Tris-HCl, 5 mM MgCl2, 10 mg/ml protease-free BSA, 0.1 mg/ml STI, and 0.1 mg/ml Pefabloc, pH 7.4) with a Tissue-Tearor (Biospec Products), then centrifuged again at 48,000×g for 10 minutes. The pellets were homogenized for a third time in 15 ml assay buffer using the Tissue-Tearor and again centrifuged at 48,000×g for 10 minutes. The resulting pellet was resuspended in assay buffer at a wet weight concentration of 4 mg/ml.
Binding assays were performed in 96-well U-bottom plates. […] Bound radioactivity was determined using a TopCount microplate scintillation and luminescence counter (Packard Instrument Company, PerkinElmer, Shelton, Conn.). Nonlinear regression analyses of resulting concentration curves were performed using GraphPad Prism (GraphPad Software, Inc., San Diego, Calif.).

mouse GLP-1 receptor = target: T2, mouse GLP-1 receptor (Mus musculus, UniProt O35659); test: GLP-1R reporter assay (cAMP-regulated luciferase, CHOK1 cells), mouse receptor; format: cell-based; settings: 6 hours exposure
T2 construct: expressed in transfected cells; host or cells: CHOK1 cells with a cAMP-regulated luciferase reporter construct
T2 sequence (O35659 22-463): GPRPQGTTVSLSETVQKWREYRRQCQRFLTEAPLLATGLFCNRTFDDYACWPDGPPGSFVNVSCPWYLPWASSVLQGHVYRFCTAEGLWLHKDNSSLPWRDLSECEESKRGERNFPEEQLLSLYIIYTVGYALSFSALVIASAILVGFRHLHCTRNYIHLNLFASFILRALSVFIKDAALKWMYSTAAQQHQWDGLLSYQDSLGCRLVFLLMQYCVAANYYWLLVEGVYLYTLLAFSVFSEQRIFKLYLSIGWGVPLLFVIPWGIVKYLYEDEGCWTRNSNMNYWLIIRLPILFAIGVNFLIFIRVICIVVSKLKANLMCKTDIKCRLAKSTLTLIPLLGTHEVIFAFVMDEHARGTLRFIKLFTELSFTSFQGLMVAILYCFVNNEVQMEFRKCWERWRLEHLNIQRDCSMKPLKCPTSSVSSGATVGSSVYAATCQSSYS
Procedure: as §1, §2

[3] = luciferase reporter, 6 hours exposure, read-out: EC50 human
[4] = membranes of CHOK1 cells expressing human GLP-1 receptor, 0.2 nM 125I-GLP-1

Compound	EC50 (human GLP-1 receptor [1]; [3]) [nM]	EC50 (mouse GLP-1 receptor) [nM]	IC50 (human GLP-1 receptor [2]; [4]) [nM]	other results
CC[C@H](C)[C@H](NC(=O)[C@H](Cc1ccccc1)NC(=O)[C@H](CCC(=O)O)NC(=O)[C@H](CCCCN)NC(=O)[C@H](C)NC(=O)[C@H](C)NC(=O)[C@H](CCC(N)=O)NC(=O)CNC(=O)[C@H](CCC(=O)O)NC(=O)[C@H](CC(C)C)NC(=O)[C@H](Cc1ccc(O)cc1)NC(=O)[C@H](CO)NC(=O)[C@H](CO)NC(=O)[C@@H](NC(=O)[C@H](CC(=O)O)NC(=O)[C@H](CO)NC(=O)[C@@H](NC(=O)[C@H](Cc1ccccc1)NC(=O)[C@@H](NC(=O)CNC(=O)[C@H](CCC(=O)O)NC(=O)[C@H](C)NC(=O)[C@H](Cc1c[nH]cn1)NC(=O)[C@H](Cc1c[nH]cn1)NC(=O)[C@H](Cc1c[nH]cn1)NC(=O)[C@@H](N)CCSC)[C@@H](C)O)[C@@H](C)O)C(C)C)C(=O)N[C@@H](C)C(=O)N[C@@H](Cc1c[nH]c2ccccc12)C(=O)N[C@@H](CC(C)C)C(=O)N[C@H](C(=O)N[C@@H](CCCCN)C(=O)NCC(=O)N[C@@H](CCCNC(=N)N)C(=O)O)C(C)C [MHH-GLP1, MHH HAEGTFTSDVSSYLEGQAAKEFIAWLVKGR]	1	5	–	IC50 (human GLP-1 receptor [2]): 350 nM
CC[C@H](C)[C@H](NC(=O)[C@H](Cc1ccccc1)NC(=O)[C@H](CCC(=O)O)NC(=O)[C@H](CCCCN)NC(=O)[C@H](C)NC(=O)[C@H](C)NC(=O)[C@H](CCC(N)=O)NC(=O)CNC(=O)[C@H](CCC(=O)O)NC(=O)[C@H](CC(C)C)NC(=O)[C@H](Cc1ccc(O)cc1)NC(=O)[C@H](CO)NC(=O)[C@H](CO)NC(=O)[C@@H](NC(=O)[C@H](CC(=O)O)NC(=O)[C@H](CO)NC(=O)[C@@H](NC(=O)[C@H](Cc1ccccc1)NC(=O)[C@@H](NC(=O)CNC(=O)[C@H](CCC(=O)O)NC(=O)[C@H](C)NC(=O)[C@H](Cc1c[nH]cn1)NC(=O)[C@H](Cc1c[nH]c2ccccc12)NC(=O)[C@@H](N)CCSC)[C@@H](C)O)[C@@H](C)O)C(C)C)C(=O)N[C@@H](C)C(=O)N[C@@H](Cc1c[nH]c2ccccc12)C(=O)N[C@@H](CC(C)C)C(=O)N[C@H](C(=O)N[C@@H](CCCCN)C(=O)NCC(=O)N[C@@H](CCCNC(=N)N)C(=O)O)C(C)C [MW-GLP1, MW HAEGTFTSDVSSYLEGQAAKEFIAWLVKGR]	0.8	5	–	–
CC[C@H](C)[C@H](NC(=O)[C@H](Cc1ccccc1)NC(=O)[C@H](CCC(=O)O)NC(=O)[C@@H]1CCC(=O)NCCCC[C@H](NC(=O)[C@H](CCC(=O)O)NC(=O)[C@H](CC(C)C)NC(=O)[C@H](Cc2ccc(O)cc2)NC(=O)[C@H](CO)NC(=O)[C@H](CO)NC(=O)[C@@H](NC(=O)[C@H](CC(=O)O)NC(=O)[C@H](CO)NC(=O)[C@@H](NC(=O)[C@H](Cc2ccccc2)NC(=O)[C@@H](NC(=O)CNC(=O)[C@H](CCC(=O)O)NC(=O)CNC(=O)[C@@H](N)Cc2c[nH]cn2)[C@@H](C)O)[C@@H](C)O)C(C)C)C(=O)N[C@@H](CCC(N)=O)C(=O)N[C@@H](C)C(=O)N[C@@H](C)C(=O)N1)C(=O)N[C@@H](C)C(=O)N[C@@H](Cc1c[nH]c2ccccc12)C(=O)N[C@@H](CC(C)C)C(=O)N[C@H](C(=O)N[C@@H](CCCCN)C(=O)NCC(=O)N[C@@H](CCCNC(=N)N)C(=O)NCC(N)=O)C(C)C [GLP1(7-37) cyclo[Lys16-Glu20], HGEGTFTSDVSSYLEKQAAEEFIAWLVKGRG AMIDE] (H-HGEGTFTSDVSSYLEKQAAEEFIAWLVKGRG-NH2; lactam 16-20)	–	–	–	EC50 (human GLP-1 receptor [1]): 0.016 nM
CC[C@H](C)[C@H](NC(=O)[C@H](Cc1ccccc1)NC(=O)[C@H](CCC(=O)O)NC(=O)[C@H](CCCCN)NC(=O)[C@H](C)NC(=O)[C@H](C)NC(=O)[C@H](CCC(N)=O)NC(=O)CNC(=O)[C@H](CCC(=O)O)NC(=O)[C@H](CC(C)C)NC(=O)[C@H](Cc1ccc(O)cc1)NC(=O)[C@H](CO)NC(=O)[C@H](CO)NC(=O)[C@@H](NC(=O)[C@H](CC(=O)O)NC(=O)[C@H](CO)NC(=O)[C@@H](NC(=O)[C@H](Cc1ccccc1)NC(=O)[C@@H](NC(=O)CNC(=O)[C@H](CCC(=O)O)NC(=O)[C@H](C)NC(=O)[C@H](Cc1c[nH]cn1)NC(=O)[C@H](Cc1c[nH]cn1)NC(=O)[C@@H](N)CCSC)[C@@H](C)O)[C@@H](C)O)C(C)C)C(=O)N[C@@H](C)C(=O)N[C@@H](Cc1c[nH]c2ccccc12)C(=O)N[C@@H](CC(C)C)C(=O)N[C@H](C(=O)N[C@@H](CCCCN)C(=O)NCC(=O)N[C@@H](CCCNC(=N)N)C(=O)O)C(C)C [MH-GLP1, MH HAEGTFTSDVSSYLEGQAAKEFIAWLVKGR]	–	–	–	IC50 (human GLP-1 receptor [2]): 350 nM
CC[C@H](C)[C@H](NC(=O)[C@H](Cc1ccccc1)NC(=O)[C@H](CCC(=O)O)NC(=O)[C@H](CCCCN)NC(=O)[C@H](C)NC(=O)[C@H](C)NC(=O)[C@H](CCC(N)=O)NC(=O)CNC(=O)[C@H](CCC(=O)O)NC(=O)[C@H](CC(C)C)NC(=O)[C@H](Cc1ccc(O)cc1)NC(=O)[C@H](CO)NC(=O)[C@H](CO)NC(=O)[C@@H](NC(=O)[C@H](CC(=O)O)NC(=O)[C@H](CO)NC(=O)[C@@H](NC(=O)[C@H](Cc1ccccc1)NC(=O)[C@@H](NC(=O)CNC(=O)[C@H](CCC(=O)O)NC(=O)[C@H](C)NC(=O)[C@H](Cc1c[nH]cn1)NC(=O)[C@H](CCC(N)=O)NC(=O)[C@@H](N)CCSC)[C@@H](C)O)[C@@H](C)O)C(C)C)C(=O)N[C@@H](C)C(=O)N[C@@H](Cc1c[nH]c2ccccc12)C(=O)N[C@@H](CC(C)C)C(=O)N[C@H](C(=O)N[C@@H](CCCCN)C(=O)NCC(=O)N[C@@H](CCCNC(=N)N)C(=O)O)C(C)C [MQ-GLP1, MQ HAEGTFTSDVSSYLEGQAAKEFIAWLVKGR]	0.5	3	–	–
cgGLP-2: SEQ ID NO: 6 + 40k branched PEG (HGEGTFTSDVSSYLEGC(branched PEG 40 kDa)AAKEFIAWLVKGRG)	0.7	–	> 1000	–
cgGLP-1: SEQ ID NO: 6 + 20K PEG (HGEGTFTSDVSSYLEGC(PEG 20 kDa)AAKEFIAWLVKGRG)	12	–	> 1000	–
CC[C@H](C)[C@H](NC(=O)[C@H](Cc1ccccc1)NC(=O)[C@H](CCC(=O)O)NC(=O)[C@H](CCCCN)NC(=O)[C@H](C)NC(=O)[C@H](C)NC(=O)[C@H](CCC(N)=O)NC(=O)CNC(=O)[C@H](CCC(=O)O)NC(=O)[C@H](CC(C)C)NC(=O)[C@H](Cc1ccc(O)cc1)NC(=O)[C@H](CO)NC(=O)[C@H](CO)NC(=O)[C@@H](NC(=O)[C@H](CC(=O)O)NC(=O)[C@H](CO)NC(=O)[C@@H](NC(=O)[C@H](Cc1ccccc1)NC(=O)[C@@H](NC(=O)CNC(=O)[C@H](CCC(=O)O)NC(=O)[C@H](C)NC(=O)[C@H](Cc1c[nH]cn1)NC(=O)[C@H](CCCCN)NC(=O)[C@@H](N)CCSC)[C@@H](C)O)[C@@H](C)O)C(C)C)C(=O)N[C@@H](C)C(=O)N[C@@H](Cc1c[nH]c2ccccc12)C(=O)N[C@@H](CC(C)C)C(=O)N[C@H](C(=O)N[C@@H](CCCCN)C(=O)NCC(=O)N[C@@H](CCCNC(=N)N)C(=O)O)C(C)C [MK-GLP1, MK HAEGTFTSDVSSYLEGQAAKEFIAWLVKGR]	4	–	–	–
cgGLP-13: SEQ ID NO: 8 + 20k PEG monomer (HGEGTFTSDVSSYLEGC(PEG 20 kDa)AAKEFIAWLKNGGPSSGAPPPS)	1	–	> 1000	–
cgGLP-7: SEQ ID NO: 6 + 30k PEG (HGEGTFTSDVSSYLEGC(PEG 30 kDa)AAKEFIAWLVKGRG)	–	–	> 1000	–
CC[C@H](C)[C@H](NC(=O)[C@H](Cc1ccccc1)NC(=O)[C@H](CCC(=O)O)NC(=O)[C@H](CCCCN)NC(=O)[C@H](C)NC(=O)[C@H](C)NC(=O)[C@H](CCC(N)=O)NC(=O)CNC(=O)[C@H](CCC(=O)O)NC(=O)[C@H](CC(C)C)NC(=O)[C@H](Cc1ccc(O)cc1)NC(=O)[C@H](CO)NC(=O)[C@H](CO)NC(=O)[C@@H](NC(=O)[C@H](CC(=O)O)NC(=O)[C@H](CO)NC(=O)[C@@H](NC(=O)[C@H](Cc1ccccc1)NC(=O)[C@@H](NC(=O)CNC(=O)[C@H](CCC(=O)O)NC(=O)[C@H](C)NC(=O)[C@H](Cc1c[nH]cn1)NC(=O)[C@H](CCC(=O)O)NC(=O)[C@@H](N)CCSC)[C@@H](C)O)[C@@H](C)O)C(C)C)C(=O)N[C@@H](C)C(=O)N[C@@H](Cc1c[nH]c2ccccc12)C(=O)N[C@@H](CC(C)C)C(=O)N[C@H](C(=O)N[C@@H](CCCCN)C(=O)NCC(=O)N[C@@H](CCCNC(=N)N)C(=O)O)C(C)C [ME-GLP1, ME HAEGTFTSDVSSYLEGQAAKEFIAWLVKGR]	1	4	–	–
